Results taken from US20240002441A1, “PEPTIDES AND USES THEREOF IN MODULATION OF AMYLOID-BETA PROTEIN DEGRADING PROTEASES” (priority 2020, published 2024).

How the values were obtained:
[1] = test system: Ang II-induced expression of IL-6 and Collagen III in EA.hy926 cells; assay: Ang II-induced expression of IL-6 and Collagen III in EA.hy926 cells, western blotting (Example 9); format: cell-based
Method: EA.hy926 cells (passage 40) were seeded at a density of 1×10^6 cells/mL. After 24 hours, cells were incubated overnight in reduced serum media. Cells were then treated over 24 h as follows: • 1. Vehicle control • 2. Ang II (10 nM) • 3. […] Ang II (10 nM)+rhACE2 (0.05 ng/μL) • 5.
Following incubation, cells were lysed using lysis buffer (Thermo Fisher Scientific, Cat #89900) containing 1% protease inhibitor (Thermo Fisher Scientific, Cat #1861278). Cell lysate was centrifuged at 13,000 rpm for 10 min. Protein concentration in the supernatant was determined by NanoDrop (Thermo Fisher Scientific, Cat #ND-1000). Supernatants were stored at −30° C. until analysed.
Samples were diluted in SDS-PAGE reducing sample buffer (Bio-Rad Laboratories, Cat #1610747; California, USA) containing 1% β-mercaptoethanol (Bio-Rad Laboratories, Cat #221610710) to reach a final concentration of […]. Prior to loading, samples were heated at 95° C. for 5 min. Samples were loaded into the wells alongside the molecular weight marker (Life Technologies, Cat #LC5800; California, USA). Electrophoresis was conducted at 200 V for 40 min in 1× running buffer. Following protein separation by SDS-PAGE, proteins were blotted onto nitrocellulose membranes at 100 V for 1 h in 1× transfer buffer. The membranes were then blocked in 5% skim milk in 1× Tris-buffered saline (TBST) containing 0.05% Tween 20 (Thermo Fisher Scientific, Cat #28352) for 1 h at room temperature. The membranes were incubated with IL-6 (1:500; Thermo Fisher Scientific, Cat #700480) or collagen III (1:500; Invitrogen, Cat #PA5-27828) primary antibodies while rocking at 4° C. overnight. Membranes were then probed with secondary antibody conjugated with horseradish peroxidase (HRP) (1:6000) for 1 h at room temperature. The HRP-labelled proteins were detected using chemiluminescence SuperSignal™ ECL Western Blotting Substrate (Thermo Fisher Scientific, Cat #34577) at 1:1 ratio. Beta-actin was used as a loading control. Protein bands were analysed using ImageJ (version 1.51) and band density was normalised with the respective beta-actin.

NEP [2] = molecular target: T1, NEP (Homo sapiens, UniProt P08473); assay: Cleavage of synthetic Aβ40 by NEP, LCMS (Example 7); format: biochemical; conditions: peptide 9 μM
T1 construct: purchased R & D systems 1182-ZNC-010
Method: Synthetic Aβ40 (0.10 μg/μL) was added to a reaction mixture containing NEP (0.05 ng/μL) pre-incubated with SEQ ID NO:2 or scrambled control (9 μM) for 1 h at 37° C. Synthetic Aβ42 (0.05 μg/μL) was added to a reaction mixture containing NEP (0.15 ng/μL) preincubated with either scrambled control or SEQ ID NO:2 (9 μM) for 1 h at 37° C. Samples containing enzyme alone had only NEP buffer (Table 2). The cleavage reaction was allowed to continue in a thermomixer at 37° C. Aliquots of equal volume were taken over 24 h. Aliquots were immediately acidified with 0.1% trifluoroacetic acid (TFA) to terminate enzyme activity and snap frozen in dry ice. Samples were stored at −80° C. until analysed by LCMS.
Samples were analysed by LC-MS/MS using a quadrupole TOF mass spectrometer (MicroTOFq, Bruker Daltonics, Bremen, Germany) coupled online with a 1200 series nano-HPLC (Agilent technologies, Santa Clara, CA, USA). Samples were injected onto a zorbax 300SB reversed phase trap column with 95% solvent A (0.1% formic acid) at a flow rate of 10 μL/minute. The peptides were eluted over a 10-min gradient to 70% solvent B (80% acetonitrile, 0.1% formic acid) and separated on a 15-cm, 75-μmID zorbax 300SB nanocolumn. The eluent was nebulised and ionised using the Bruker nano-ESI source with a capillary voltage of 4500 V, dry gas at 180° C., flow rate of 5 L/minute and nebuliser gas pressure at 300 mbar. The MS acquisition was in selected ion monitoring mode after selected ion extraction of the MS spectra. Prior to analysis, the qTOF mass spectrometer was calibrated using a 1:50 dilution tuning mix (Agilent technologies, Santa Clara, CA, USA). Data from MS run were processed in Skyline version 19.1.0.193 (Uni. Of Washington, WA, USA) to perform ion chromatogram extractions and peak integrations.

NEP [3] = molecular target: T1, NEP; assay: QFS plate reader enzyme assay, peptide screen on NEP activity (Example 3); format: biochemical; conditions: peptide 10 ng/μL, NEP 0.05 ng/μL, 1 h at 37° C.; compared to enzyme alone
Method: (§1) Plate reader-based enzyme assays were performed using a quenched fluorescent substrate (QFS) in a 96-well format using a SpectraMAX M4 Microplate reader (Molecular Devices). The increase in fluorescence following addition of QFS (40 μM) was taken as evidence of enzyme activity. Fluorescence was monitored over 2 h at 37° C. using κEx=320 nm and λEm=405 nm. Assays were conducted in black 96-well plates. Specific enzyme activity was expressed as a rate of substrate cleavage calculated using a standard curve of 7-methoxy-coumarin-4-acetic acid.
(§2) In all plate reader-based enzyme assays using QFS, the reaction rate (μmol of substrate cleaved/min) was calculated using linear regression analysis (GraphPad Prism software version 8.01). The reaction rates calculated were used to generate the enzyme kinetic parameters Vmax and Km through non-linear regression analysis (GraphPad Prism software, version 8.01; Michaelis-Menten equation). Where indicated, enzyme activity in the presence of peptide was expressed as a % of the enzyme alone. Data were expressed as mean±SEM and statistical significance was determined using t-tests or one-way ANOVAs followed by Tukey's post-hoc test. P<0.05 was considered as statistically significant. In all assays conducted using 96-well plates, the reaction mixtures in each well were considered an independent experiment.
(§3) SEQ ID NOS: 1, 5 and 9-15 were screened for their effects on NEP and ECE1 using a high-throughput QFS assay using the method in Example 2 and the following procedure. NEP or ECE1 (0.05 ng/μL) was incubated with each peptide (10 ng/μL) for 1 h at 37° C.

EA.hy926 cells = assay: Peptide stability study in EA.hy926 endothelial cells, LCMS (Example 4); format: in vitro ADME; conditions: peptide 9 μM, Opti-MEM
Method: (§4) SEQ ID NO:2 was prepared as a C-terminal amidated analogue of SEQ ID NO:1. The stability of SEQ ID NO:1 and SEQ ID NO:2 was assessed in HEK293 and EA.hy926 cells grown in culture and their break down was monitored by LCMS over 60 min using the following procedure.
(§5) HEK293 (passage 24) or Ea.hy926 (passage 37) were seeded into tissue-culture-grade 96-well plates at a density of 20,000 cells/well. After 24 hr, cells were washed with PBS and replaced with Opti-MEM reduced serum media containing SEQ ID NO:1 or SEQ ID NO:2 (9 μM). Aliquots of equal volume were taken at T=0 and 60 min. SEQ ID NO:2 was added to control wells having media (no cells) only. Samples were immediately acidified in 0.1% TFA, snap frozen in dry ice and stored in −80° C. until analysed by LCMS.
(§6) Samples were analyzed by LC-MS/MS on a Shimadzu Nexera uHPLC (Japan) coupled to a Triple Tof 5600 mass spectrometer (ABSCIEX, Canada) equipped with a duo electrospray ion source. One μL of each extract was injected onto a 2.1 mm×100 mm Zorbax C18 1.8 um column (Agilent) at 200 μL/min. […] SEQ ID NO:1 and SEQ ID NO:2 were quantified using the […] doubly charged molecular ion from m/z 510.270 to 510.325. The data was acquired using Analyst TF 1.6 and quantification was carried out using MultiQuant 2.1.1 software (ABSCIEX, Canada).

ECE1 = molecular target: T2, ECE1 (Homo sapiens, UniProt P42892); assay: QFS plate reader enzyme assay, peptide screen on ECE1 activity (Example 3); format: biochemical; conditions: peptide 10 ng/μL, ECE1 0.05 ng/μL, 1 h at 37° C.; compared to enzyme alone
T2 construct: purchased R & D systems 1784-ZN-010
T2 sequence (P42892 1-770): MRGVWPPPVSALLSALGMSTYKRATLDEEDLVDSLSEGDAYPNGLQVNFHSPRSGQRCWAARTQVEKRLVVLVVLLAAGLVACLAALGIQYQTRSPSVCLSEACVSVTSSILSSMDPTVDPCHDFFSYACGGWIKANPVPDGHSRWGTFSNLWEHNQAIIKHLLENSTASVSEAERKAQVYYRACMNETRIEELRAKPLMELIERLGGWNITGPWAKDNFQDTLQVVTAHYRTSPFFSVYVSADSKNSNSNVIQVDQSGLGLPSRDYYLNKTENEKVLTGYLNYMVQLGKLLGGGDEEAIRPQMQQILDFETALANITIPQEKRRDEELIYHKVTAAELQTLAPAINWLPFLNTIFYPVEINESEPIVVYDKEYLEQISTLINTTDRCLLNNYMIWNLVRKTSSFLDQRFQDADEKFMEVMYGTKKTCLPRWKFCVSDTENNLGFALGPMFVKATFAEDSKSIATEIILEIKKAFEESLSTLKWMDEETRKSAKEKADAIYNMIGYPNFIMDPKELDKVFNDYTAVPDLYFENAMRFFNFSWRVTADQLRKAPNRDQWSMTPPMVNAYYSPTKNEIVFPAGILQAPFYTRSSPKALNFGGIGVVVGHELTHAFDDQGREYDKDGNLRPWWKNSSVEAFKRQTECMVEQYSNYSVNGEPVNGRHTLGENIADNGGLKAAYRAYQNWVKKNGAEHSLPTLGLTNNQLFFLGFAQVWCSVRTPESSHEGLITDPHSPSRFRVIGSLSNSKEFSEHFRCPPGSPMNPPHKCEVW
Method: as §1, §2, §3

HEK293 cells = assay: Peptide stability study in HEK293 cells, LCMS (Example 4); format: in vitro ADME; conditions: peptide 9 μM, Opti-MEM, 60 min
Method: as §4, §5, §6

[4] = Ang II 10 nM + peptide 26 μM + rhACE2 0.05 ng/μL + MLN-4760 10 μM

T1 sequence (P08473 whole entry): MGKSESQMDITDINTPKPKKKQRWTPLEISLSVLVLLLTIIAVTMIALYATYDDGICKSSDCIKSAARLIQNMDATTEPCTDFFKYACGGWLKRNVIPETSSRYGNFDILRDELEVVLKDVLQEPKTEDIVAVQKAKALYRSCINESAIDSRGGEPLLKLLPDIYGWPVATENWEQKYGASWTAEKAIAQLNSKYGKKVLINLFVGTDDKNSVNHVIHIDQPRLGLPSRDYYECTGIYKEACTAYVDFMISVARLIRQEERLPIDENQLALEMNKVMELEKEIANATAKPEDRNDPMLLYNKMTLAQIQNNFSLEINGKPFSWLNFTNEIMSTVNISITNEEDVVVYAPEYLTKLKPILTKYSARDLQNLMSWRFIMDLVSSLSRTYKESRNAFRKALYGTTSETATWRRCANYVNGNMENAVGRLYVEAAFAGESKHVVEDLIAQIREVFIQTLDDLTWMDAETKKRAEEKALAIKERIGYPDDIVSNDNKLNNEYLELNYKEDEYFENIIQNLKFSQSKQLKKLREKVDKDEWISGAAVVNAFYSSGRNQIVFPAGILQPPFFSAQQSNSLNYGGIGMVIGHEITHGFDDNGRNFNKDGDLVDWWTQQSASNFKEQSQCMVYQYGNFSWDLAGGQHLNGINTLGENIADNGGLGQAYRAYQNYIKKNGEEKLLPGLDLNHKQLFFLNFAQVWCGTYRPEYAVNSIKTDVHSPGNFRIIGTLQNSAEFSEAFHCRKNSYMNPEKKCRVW

Molecule: CC(C)C[C@H](N[C@@H](Cc1cncn1Cc1cc(Cl)cc(Cl)c1)C(=O)O)C(=O)O [MLN-4760, reference compound]
- Collagen III expression in the presence of ACE2 inhibitor MLN-4760 [1, 4]: 75±14%
- IL-6 expression in the presence of MLN-4760 [1, 4]: no difference

Molecule: Ang II: Angiotensin II, potent vasoconstrictor with fibrotic and inflammatory effects; stimulus in EA.hy926 cells (DRVYIHPF; Angiotensin-2; UniProt P01019 25-32, looked up) [reference compound]
- Collagen III expression ([1]; EA.hy926 cells, 24 h, Ang II 10 nM alone, or Ang II and 2A (26 μM)): 141±30%
- IL-6 expression ([1]; EA.hy926 cells, Ang II 10 nM, 24 h, band density normalised with beta-actin): 152±8%

Molecule: H-KILGILFMSE-OH [scrambled control, reference compound]
- decrease in Aβ1-21 and increase in Aβ1-12 (NEP [2]; Aβ40 cleavage): not observed
- peak area corresponding to Aβ1-12 after 24 h (NEP [2]; Aβ40 cleavage, 24 h): 9.7×10^6±2.1×10^6 arbitrary units
- amount of Aβ40 remaining after 4 h (peak area) (NEP [2]; NEP 0.05 ng/μL, Aβ40 0.10 μg/μL, 4 h): 6.4×10^6±1.7×10^6 arbitrary units

Molecule: H-SLFELGKMIL-OH [SEQ ID NO:1, H2N-SLFELGKMIL-OH]
- NEP activity (NEP [3]): significant increase
- relative amount remaining in the medium of endothelial cells at 60 min (EA.hy926 cells): 23%±2.4%
- ECE1 activity (ECE1): no effect
- amount remaining in the medium of HEK293 cells (HEK293 cells): 29%±3%

Molecule: H-SLFELGKMILQE-OH [SEQ ID NO:5]
- NEP activity (NEP [3]): significant increase
- ECE1 activity (ECE1): no effect

Molecule: H-SLFELGKMILQETG-OH [SEQ ID NO:12]
- NEP activity (NEP [3]): significantly stimulate
- ECE1 activity (ECE1): significantly stimulate

Molecule: H-SLFELGKMILQETGKN-OH [SEQ ID NO:11]
- NEP activity (NEP [3]): significantly stimulate
- ECE1 activity (ECE1): significantly stimulate

Molecule: rhACE2: Recombinant human ACE2 (Cat #933-ZN-010) purchased from R & D systems
- Collagen III expression compared to cells treated with Ang II alone ([1]; Ang II 10 nM plus 2A 26 μM and/or ACE2 0.05 ng/μL, 24 h): significantly lower
- IL-6 expression compared to cells treated with Ang II alone ([1]; Ang II 10 nM plus peptide 26 μM and/or rhACE2 0.05 ng/μL, 24 h): significantly lower
